Data on two molecules can be found in publication PMC8274952 (European journal of medicinal chemistry, 2019).

The test system of one data set is A549 cells. The data set is described as follows: cells. The following applies: Homo sapiens, A549, 72 h, read-out: GI50 ± SD.
Data set [1] concerns the target T1, TOP1-DNA covalent cleavage complexes (TOP1cc) (Homo sapiens, UniProt P11387).
T1 sequence (P11387 2-765 limits assumed): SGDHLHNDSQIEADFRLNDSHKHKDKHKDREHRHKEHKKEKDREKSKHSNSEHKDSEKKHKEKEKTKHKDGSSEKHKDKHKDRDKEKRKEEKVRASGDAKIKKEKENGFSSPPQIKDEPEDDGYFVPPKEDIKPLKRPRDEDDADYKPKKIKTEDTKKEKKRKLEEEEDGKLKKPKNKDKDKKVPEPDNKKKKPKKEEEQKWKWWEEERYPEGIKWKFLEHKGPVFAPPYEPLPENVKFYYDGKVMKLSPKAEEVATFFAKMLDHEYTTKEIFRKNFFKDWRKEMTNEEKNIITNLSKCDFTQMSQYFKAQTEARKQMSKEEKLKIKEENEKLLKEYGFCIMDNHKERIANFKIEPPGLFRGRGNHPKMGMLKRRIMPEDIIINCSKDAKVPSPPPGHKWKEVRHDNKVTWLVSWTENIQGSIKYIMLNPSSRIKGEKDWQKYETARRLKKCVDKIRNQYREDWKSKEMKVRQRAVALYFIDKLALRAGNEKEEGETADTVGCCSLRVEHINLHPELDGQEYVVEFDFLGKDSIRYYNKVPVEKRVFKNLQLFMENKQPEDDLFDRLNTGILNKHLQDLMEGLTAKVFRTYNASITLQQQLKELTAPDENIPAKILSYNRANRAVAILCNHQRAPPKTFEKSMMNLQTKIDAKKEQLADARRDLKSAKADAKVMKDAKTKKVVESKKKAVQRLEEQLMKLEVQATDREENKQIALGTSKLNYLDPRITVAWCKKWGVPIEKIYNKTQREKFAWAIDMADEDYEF
The data set is described as follows: Immunocomplex of enzyme to DNA. The conditions noted are these: HCT116 cells; for Induction of cellular TOP1cc: 1 h, CPT 25 and 50 μM, 12 at 25, 50 and 100 μM.

In a further data set the test system is γH2AX foci. The data set can be described thus: γH2AX foci immunofluorescence in HCT116 cells. Type of data set: cell-based, human. The conditions noted are these: 1 μM, 3 h.
In data set [2] the test system is human colon cancer HCT116 xenograft. The data set is described as follows: In vivo antitumor efficiency, HCT116 xenograft. The following applies: HCT116 xenograft nude mice; 5, 10, 20 mg/kg ip daily.
For data set [3], the system named is human breast cancer MCF-7 xenograft. The data set is described as follows: In vivo antitumor efficiency, MCF-7 xenograft. The following applies: MCF-7 xenograft nude mice; 5, 10, 20 mg/kg ip daily.
The test system of the next data set is HCT116 cells. The following applies: 0.5, 1 and 2 μM, 24 h.
In another data set the test system is Kunming male mice. The data set can be described thus: Acute toxicity in vivo. The conditions noted are these: n = 6.

With `CC[C@@]1(O)C(=O)OCc2c1cc1n(c2=O)Cc2cc3ccccc3nc2-1` [CPT, camptothecin, reference compound], in the data set on A549 cells, the GI50 came out at 99 ± 17 nM. For the same molecule, the “Induction of cellular TOP1cc” value in data set [1] was “induce the formation of cellular TOP1cc in a dose-dependent manner”.

Turning to `CNCCn1c(=O)c2cc(OC)c(OC)cc2c2ccc3cc4c(cc3c21)OCO4` [Compound 12, 2,3-Dimethoxy-12-(2-(methylamino)ethyl)-[1,3]dioxolo[4’,5’:4,5]benzo[1,2-c]phenanthridin-13(12H)-one], the “Induction of γH2AX foci (DNA damage)” value in the data set on γH2AX foci was “effectively induces γH2AX foci”. Besides, the tumor volume entry in data set [2] and in data set [3] was “significantly reduced the tumor volume in a dose-dependent manner” in each case. Moreover, the Induction of apoptosis entry in the data set with HCT116 cells is reported as “induce HCT116 cells apoptosis in a dose-dependent manner”. The mice survival result with Kunming male mice (122.9 mg/kg single ip dose, 7 days) was “all mice survived”; in the data set with Kunming male mice (153.6 mg/kg single ip dose, 7 days), “four mice survived”; in the data set with Kunming male mice (192 mg/kg single ip dose, 7 days), “three mice survived”; with Kunming male mice (240 mg/kg single ip dose, 7 days), “two mice survived”; in the data set with Kunming male mice (300 mg/kg single ip dose) it was “All mice died within 5 days”. The “Induction of cellular TOP1cc compared with CPT” value in data set [1] (25 μM) is recorded as “higher ability to induce cellular TOP1cc at 25 μM than CPT”. Moreover, in data set [1], the “Induction of cellular TOP1cc” value is reported as “induce the formation of cellular TOP1cc in a dose-dependent manner”.
